The text below walks through data of patent US20250387334A1, “Oxyanion azide-benzaldehyde acetal acid-degradable lipids” (The Regents of the University of California, priority 2023, published 2025).

The conditions of series [1]: IL-22 protein; cited from earlier work.
A short description of series [2]: Hydrolysis kinetics of compounds 1-3 and their reduced forms (plate reader, mass spectrum). The class given is physicochemical. The settings on record: for compound detected in the buffer by mass spectrum: 6 hours; for half-life: buffer. An excerpt: Engineering PEG-lipids to rapidly hydrolyze in endosomes has the potential to generate LNPs that have high levels of PEGylation and also transfect cells efficiently^10, 19, 20. The PEG-lipid reduces LNP toxicity and enhances LNP diffusion through tissue. However, LNPs are currently made with 0.5-1.5 mole percent of the PEG-lipid because increasing PEGylation levels beyond these levels can have detrimental effects. For example, the PEG-lipid lowers endosomal disruption by preventing the mixing of the ionizable lipid with endosomal lipids^20, 21 and causes the formation of anti-PEG antibodies^22. LNPs made with acid-degradable PEG-lipids should transfect cells efficiently even at high levels of PEGylation because they will hydrolyze off the LNP after endocytosis and will be released from the LNP surface. In addition, the immunogenicity of PEG dramatically increases after conjugation to lipids, and acid-degradable PEG-lipids may also have lower immunogenicity than traditional PEG-lipids because they will rapidly generate free PEG after endocytosis^22, 23.

Series [3] in a line: Acid-catalyzed hydrolysis kinetics of model azido-acetal 4 and its reduced form 5. In kind it is physicochemical. The source says:
RD-LNPs are based upon the rapid hydrolysis of the azido-acetal linker at pH 6.0. We synthesized the model azido-acetal 4 and measured its acid-catalyzed hydrolysis rate before and after reduction to investigate whether reductive activation accelerates the hydrolysis kinetics of an azido-acetal. […] The azido-acetal has the stability needed for performing multi-step organic reactions and should enable the development of new materials that are hypersensitive to acidic conditions. […] In addition, the reduced azido-acetal hydrolyzes with a t1/2<30 minutes at pH 6.0 and has the hydrolysis kinetics needed to degrade in endosomes before trafficking to lysosomes occurs4. The two-step hydrolysis mechanism of the azido-acetal overcomes the stability problems preventing the development of rapidly hydrolyzing lipids and provides a general strategy for developing lipids and materials that rapidly hydrolyze at endosomal pHs.

Series [4] in a line: DTT reduction kinetics of compound 4. In kind it is physicochemical.

Take IL-22: soluble IL-22 protein, cytokine: the circulation half-life entry in series [1] is reported as “under 2 hours”.

`CC(C)CCC[C@@H](C)[C@H]1CC[C@H]2[C@@H]3CC=C4C[C@@H](OC(=O)NCCOC(OCC[N+](C)(C)C)c5ccc(N=[N+]=[N-])cc5)CC[C@]4(C)[C@H]3CC[C@]12C` (some centres unmarked) [Compound 3]: the “compound detected in the buffer by mass spectrum” value is given as “nearly no compound 3 was detected” in series [2] (pH 4 and pH 5, 37° C.); “a large amount” in series [2] (pH 6 and pH 7.4, 37° C.).

For `COCCOCCOCCOCCOCCOCCOCCOCCOCCOCCOCCOCCOCCOCCOCCOCCOCCOCCOCCOCCOCCOCCOCCOCCOCCOCCOCCOCCOCCOCCOCCOCCOCCOCCOCCOCCOCCOCCOCCOCCOCCOCCOCCOCCOCCOC(=O)NCCOC(OCCNC(=O)O[C@H]1CC[C@@]2(C)C(=CC[C@H]3[C@@H]4CC[C@H]([C@H](C)CCCC(C)C)[C@@]4(C)CC[C@@H]32)C1)c1ccc(N=[N+]=[N-])cc1` (some centres unmarked) [Compound 1], the half-life in series [2] (pH 4.0, read-out: t1/2 (minute) pH 4.0) is 54.8 ± 3.89 min; in series [2] (pH 5.0, read-out: t1/2 (minute) pH 5.0), 192 ± 28.3 min; in series [2] (pH 6.0, cell prints day, read-out: t1/2 pH 6.0) it was 4280 min; in series [2] (pH 7.4, cell prints day, read-out: t1/2 pH 7.4 (converted)), 28500 min.

Take `COC(=O)NCCOC(OCCNC(=O)OC)c1ccc(N=[N+]=[N-])cc1` [Compound 4]: the half-life was 0.0567 ± 0.00133 h in series [3] (buffer, pH 4); 0.619 ± 0.0115 h in series [3] (buffer, pH 5); 8.57 ± 0.117 h in series [3] (buffer, pH 6); 507 h in series [3] (pH 7.4); 26.4 ± 3.37 min in series [4] (10 mM DTT solution (chemical reduction), read-out: DTT reduction t1/2 (minute) 10 mM); 14.2 ± 0.5 min in series [4] (25 mM DTT solution (chemical reduction), read-out: DTT reduction t1/2 (minute) 25 mM). In addition, the half-life in series [4] (50 mM DTT solution (chemical reduction), read-out: DTT reduction t1/2 (minute) 50 mM) was 11.9 ± 1.85 min; in series [4] (100 mM DTT solution (chemical reduction), read-out: DTT reduction t1/2 (minute) 100 mM), 7.21 ± 0.11 min. Besides, the predicted hydrolysis half-life in series [3] (pH 7.4) is 21 days. Moreover, the “hydrolysis after 6.5 hours” value in series [3] (pH 7.4, 6.5 hours) is given as “under 1%”.
